Data: patent US7138361B2, “Herbicidal heterocycles” (E. I. du Pont de Nemours and Company, priority 2000, dated 2006)

Columns and labels:
Type in all cases: in vivo
[1] = tested on: Surinam grass (Brachiaria decumbens); assay: Test B postemergence; conditions: 13 to 15 days
From the text: (§1) Seeds selected from barnyardgrass (Echinochloa crus-galli), Surinam grass (Brachiaria decumbens), cocklebur (Xanthium strumarium), corn (Zea mays), crabgrass (Digitaria sanguinalis), giant foxtail (Setaria faberii), lambsquarters (Chenopodium album), morning glory (Ipomoea hederacea), pigweed (Amaranthus retroflexus), rice (Oryza saliva) and velvetleaf (Abutilon theophrasti) were planted and treated preemergence with test chemicals formulated in a non-phytotoxic solvent mixture which included a surfactant.
(§2) At the same time, plants selected from these crop and weed species and also blackgrass (Alopecurus myosuroides), wheat (Triticum aestivum) and wild oat (Avena fatua) were treated with postemergence applications of test chemicals formulated in the same manner. Plants ranged in height from 2 to 18 cm (1- to 4-leaf stage) for postemergence treatments. Plant species in the flooded paddy test consisted of rice (Oryza saliva), smallflower flatsedge (Cyperus difformis), duck salad (Heteranthera limosa) and barnyardgrass (Echinochloa crus-galli) grown to the 2-leaf stage for testing. Treated plants and controls were maintained in a greenhouse for 13 to 15 days, after which time all species were compared to controls and visually evaluated. Plant response ratings, summarized in Table B, are based on a scale of 0 to 100 where 0 is no effect and 100 is complete control. A dash (-) response means no test result.

[2] = tested on: barnyardgrass (Echinochloa crus-galli); assay: Test B postemergence; conditions: 13 to 15 days
From the text: as §1, §2

[3] = tested on: blackgrass (Alopecurus myosuroides); assay: Test B postemergence; conditions: 13 to 15 days
From the text: as §1, §2

corn (Zea mays) [4] = assay: Test B postemergence; conditions: 13 to 15 days
From the text: as §1, §2

[5] = tested on: crabgrass (Digitaria sanguinalis); assay: Test B postemergence; conditions: 13 to 15 days
From the text: as §1, §2

[6] = tested on: giant foxtail (Setaria faberii); assay: Test B postemergence; conditions: 13 to 15 days
From the text: as §1, §2

[7] = tested on: lambsquarters (Chenopodium album); assay: Test B postemergence; conditions: Rate 500 g/ha, scale 0 to 100, 0 is no effect, 100 is complete control, 13 to 15 days
From the text: as §1, §2

[8] = tested on: morning glory (Ipomoea hederacea); assay: Test B postemergence; conditions: Rate 500 g/ha, scale 0 to 100, 0 is no effect, 100 is complete control, 13 to 15 days
From the text: as §1, §2

[9] = tested on: pigweed (Amaranthus retroflexus); assay: Test B postemergence; conditions: Rate 500 g/ha, scale 0 to 100, 0 is no effect, 100 is complete control, 13 to 15 days
From the text: as §1, §2

[10] = tested on: velvetleaf (Abutilon theophrasti); assay: Test B postemergence; conditions: Rate 500 g/ha, scale 0 to 100, 0 is no effect, 100 is complete control, 13 to 15 days
From the text: as §1, §2

[11] = tested on: wheat (Triticum aestivum); assay: Test B postemergence; conditions: Rate 500 g/ha, scale 0 to 100, 0 is no effect, 100 is complete control, 13 to 15 days
From the text: as §1, §2

wild oat (Avena fatua) = assay: Test B postemergence; conditions: Rate 500 g/ha, scale 0 to 100, 0 is no effect, 100 is complete control, 13 to 15 days
From the text: as §1, §2

[12] = tested on: Surinam grass (Brachiaria decumbens); assay: Test B preemergence
From the text: as §1, §2

[13] = tested on: barnyardgrass (Echinochloa crus-galli); assay: Test B preemergence
From the text: as §1, §2

[14] = tested on: cocklebur (Xanthium strumarium); assay: Test B preemergence
From the text: as §1, §2

corn (Zea mays) [15] = assay: Test B preemergence
From the text: as §1, §2

[16] = tested on: crabgrass (Digitaria sanguinalis); assay: Test B preemergence
From the text: as §1, §2

[17] = tested on: giant foxtail (Setaria faberii); assay: Test B preemergence
From the text: as §1, §2

[18] = tested on: lambsquarters (Chenopodium album); assay: Test B preemergence
From the text: as §1, §2

[19] = tested on: morning glory (Ipomoea hederacea); assay: Test B preemergence
From the text: as §1, §2

[20] = tested on: pigweed (Amaranthus retroflexus); assay: Test B preemergence
From the text: as §1, §2

rice (Oryza saliva) [21] = assay: Test B preemergence
From the text: as §1, §2

[22] = tested on: velvetleaf (Abutilon theophrasti); assay: Test B preemergence
From the text: as §1, §2

[23] = tested on: barnyardgrass (Echinochloa crus-galli); assay: Test C flooded paddy test; conditions: for Barnyardgrass plant response rating: Flooded Paddy, scale 0 to 100, 0 no effect, 100 complete control; for Plant response rating, Barnyardgrass: flooded paddy test, scale 0 to 100 (0 no effect, 100 complete control)
Protocol: (§3) At the same time, plants selected from these crop and weed species and also winter barley (Hordeum vulgare), blackgrass (Alopecurus myosuroides), canary grass (Phalaris minor), chickweed (Stellaria media), downy brome (Bromus tectorum), green foxtail (Setaria viridis), Italian ryegrass (Lolium multiflorum), wheat (Triticum aestivum), wild oat (Avena fatua) and windgrass (Apera spica-venti) were treated with postemergence applications of some of the test chemicals formulated in the same manner. Plants ranged in height from 2 to 18 cm (1- to 4-leaf stage) for postemergence treatments. Plant species in the flooded paddy test consisted of rice (Oryza saliva), smallflower flatsedge (Cyperus difformis), duck salad (Heteranthera limosa) and barnyardgrass (Echinochloa crus-galli) grown to the 2-leaf stage for testing. Treated plants and controls were maintained in a greenhouse for 12 to 14 days, after which time all species were compared to controls and visually evaluated. Plant response ratings, summarized in Table C, are based on a scale of 0 to 100 where 0 is no effect and 100 is complete control. A dash (-) response means no test result.

[24] = tested on: duck salad (Heteranthera limosa); assay: Test C flooded paddy test; conditions: for Ducksalad plant response rating: Flooded Paddy, scale 0 to 100, 0 no effect, 100 complete control; for Plant response rating, Ducksalad: flooded paddy test, scale 0 to 100 (0 no effect, 100 complete control)
Protocol: as §3

rice (Oryza saliva) [25] = assay: Test C flooded paddy test; conditions: for Rice plant response rating: Flooded Paddy, scale 0 to 100, 0 no effect, 100 complete control; for Plant response rating, Rice: flooded paddy test, scale 0 to 100 (0 no effect, 100 complete control)
Protocol: as §3

[26] = tested on: smallflower flatsedge (Cyperus difformis); assay: Test C flooded paddy test; conditions: for Flatsedge plant response rating: Flooded Paddy, scale 0 to 100, 0 no effect, 100 complete control; for Plant response rating, Flatsedge: flooded paddy test, scale 0 to 100 (0 no effect, 100 complete control)
Protocol: as §3

[27] = Rate 125 g/ha, scale 0 (no effect) to 100 (complete control)
[28] = Rate 500 g/ha, scale 0 to 100, 0 is no effect, 100 is complete control
[29] = Preemergence, Rate 500 g/ha, scale 0 to 100, 0 no effect, 100 complete control
[30] = preemergence, Rate 125 g/ha, scale of 0 to 100 where 0 is no effect and 100 is complete control, 13 to 15 days

SMILES: CCCCC(C)c1ccn(C2OCN(c3cccc(C(F)(F)F)c3)C2=O)n1 (centres unmarked) [Compound 98]
- Plant response rating, Surinam grass [1, 27]: 0
- Plant response rating, Surinam grass [1, 28]: 0
- Plant response rating, Barnyardgrass [2, 27]: 0
- Plant response rating, Barnyardgrass [2, 28]: 0
- Plant response rating, Blackgrass [3, 27]: 0
- Plant response rating, Blackgrass [3, 28]: 0
- Plant response rating, Corn (corn (Zea mays) [4]; [27]): 0
- Plant response rating, Corn (corn (Zea mays) [4]; [28]): 0
- Plant response rating, Crabgrass [5, 27]: 0
- Plant response rating, Crabgrass [5, 28]: 20
- Plant response rating, Foxtail, Giant [6, 27]: 0
- Plant response rating, Foxtail, Giant [6, 28]: 20
- Plant response rating, Lambsquarters [7]: 80
- Plant response rating, Morningglory [8]: 0
- Plant response rating, Pigweed [9]: 100
- Plant response rating, Velvetleaf [10]: 20
- Plant response rating, Wheat [11]: 0
- Plant response rating, Wild Oat (wild oat (Avena fatua)): 0
- Plant response rating, Surinam grass [12, 29]: 0
- Plant response rating, Surinam grass [12, 30]: 0
- Plant response rating, Barnyardgrass [13, 29]: 90
- Plant response rating, Barnyardgrass [13, 30]: 0
- Plant response rating, Cocklebur [14, 29]: 0
- Plant response rating, Cocklebur [14, 30]: 0
- Plant response rating, Corn (corn (Zea mays) [15]; [29]): 0
- Plant response rating, Corn (corn (Zea mays) [15]; [30]): 0
- Plant response rating, Crabgrass [16, 29]: 100
- Plant response rating, Crabgrass [16, 30]: 0
- Plant response rating, Foxtail, Giant [17, 29]: 90
- Plant response rating, Foxtail, Giant [17, 30]: 0
- Plant response rating, Lambsquarters [18, 29]: 100
- Plant response rating, Lambsquarters [18, 30]: 60
- Plant response rating, Morningglory [19, 29]: 0
- Plant response rating, Morningglory [19, 30]: 0
- Plant response rating, Pigweed [20, 29]: 40
- Plant response rating, Pigweed [20, 30]: 0
- Plant response rating, Rice (rice (Oryza saliva) [21]; [29]): 30
- Plant response rating, Rice (rice (Oryza saliva) [21]; [30]): 0
- Plant response rating, Velvetleaf [22, 29]: 0
- Plant response rating, Velvetleaf [22, 30]: 0
- Barnyardgrass plant response rating ([23]; Rate 250 g/ha): 30
- Barnyardgrass plant response rating ([23]; Rate 500 g/ha): 50
- Plant response rating, Barnyardgrass ([23]; Rate 62 g/ha): 0
- Plant response rating, Barnyardgrass ([23]; Rate 125 g/ha): 0
- Ducksalad plant response rating ([24]; Rate 250 g/ha): 0
- Ducksalad plant response rating ([24]; Rate 500 g/ha): 0
- Plant response rating, Ducksalad ([24]; Rate 62 g/ha): 0
- Plant response rating, Ducksalad ([24]; Rate 125 g/ha): 0
- Rice plant response rating (rice (Oryza saliva) [25]; Rate 250 g/ha): 50
- Rice plant response rating (rice (Oryza saliva) [25]; Rate 500 g/ha): 50
- Plant response rating, Rice (rice (Oryza saliva) [25]; Rate 62 g/ha): 0
- Plant response rating, Rice (rice (Oryza saliva) [25]; Rate 125 g/ha): 50
- Flatsedge plant response rating ([26]; Rate 250 g/ha): 90
- Flatsedge plant response rating ([26]; Rate 500 g/ha): 90
- Plant response rating, Flatsedge ([26]; Rate 62 g/ha): 60
- Plant response rating, Flatsedge ([26]; Rate 125 g/ha): 80
